Converted amounts (≈) assume the structure as drawn. Marks after values point to notes of the source that are not given here.
Experiments:
[1] = test system: human sperm (semen samples); assay: Spermicidal activity in the Sander-Cramer test; format: cell-based; conditions: for Highest Spermicidal Dilution (1/X) / MEC / MEC (Minimum Effective Concentration): n=10; for MEC (Minimum Effective Concentration per Sander-Cramer assay): Table 4, dH2O
Description: Semen samples were collected from healthy human volunteers: only specimens with >60×10^6 motile sperm/mL and >50% motility were used. Two-fold serial dilutions of the compounds were prepared in 0.9% saline and incubated with semen samples for 20 seconds. Sperm were assessed under the microscope and positive dilutions (i.e. all observed sperm were immotile) were further incubated at 37° C. for 1 hour with 2 vol. of buffer, and re-examined for sperm motility. If no motile sperm were seen, the positive score was maintained. The Minimum Effective Concentration (MEC) for the compound was calculated using the highest sperm immobilizing dilution and its initial concentration.

Candida albicans = assay: Inhibition of growth of Candida albicans (MIC); format: cell-based; conditions: for MIC: C. albicans, 4 days at 28° C.
Description: The Minimum Inhibitory Concentrations (MICs) of Z-10-Z-15 were measured by determining the inhibition of growth of C. albicans in a solution of mineral salts plus yeast extract (See Standard Practice for Determining Resistance of Synthetic Polymeric Material to Fungi. American Society for Testing and Materials (ASTM) Standards on Materials and Environmental Microbiology, 1st Ed., 1987), and amended with glucose (10 g/L) and yeast extract (1 g/L). An aliquot (250 μl) of sterile medium was dispensed into each well of a 96-well microplate. Stock solutions were prepared by dissolving test compounds in 50% (v/v) aqueous dimethylsulfoxide (DMSO). Each well (plus controls) was then inoculated with 5 μl of a suspension of C. albicans. The suspension was then adjusted to provide OD686=0.28. This density contains ca. 2.5×10^7 colony forming units (CFU)^2/mL. The microplates were incubated in the dark for 4 days at 28° C.

HIV-1 (RF strain) = assay: In vitro anti-HIV cell-free inactivation assay; format: cell-based; conditions: for reduction of infective viral titer: 2 minutes exposure
Description: The assay for in vitro anti-HIV activity followed the previously described procedure (Resnick et al., 1990). An infectious suspension of HIV-1 (RF strain, NIH 1983) was exposed to the compounds for 2 minutes. Immediately after, the mixture was 10-fold serially diluted with medium to terminate compound effect, and the dilutions were incubated with MT-2 target cells at 37° C. The cells were maintained in growth medium at 37° C. for 6 days. HIV-induced cytopathology (syncytium formation) was assessed on day 6 after infection, as was cell viability.

[2] = test system: sperm penetration in bovine cervical mucus; assay: Cervical mucus biodiffusion, Double-End test; conditions: testing concentration ten fold MEC; 60 minutes incubation; n=12
Description: The cervical mucus Biodiffusion properties of (R)Z-14 and (R)-Z-15 analogues were tested in comparison to that of N-9 using the Double-End test (Doncel. 1994). In this test, compound solutions (in 0.9% saline) were incubated for 60 minutes with a 7 cm capillary tube containing bovine cervical mucus (Penetrak®, Biochem Immuno System, Norwell, Mass.) opened at one end. After such incubation, the tubes' open end, which had been in contact with the compound, was sealed. Subsequently, the tubes were cut open at 20 mm from the initial opening, inverted, and immersed in semen so as to allow sperm penetration in an opposite direction to that of the compound diffusion. Sperm cease penetration when they encounter a bioactive concentration of the test compound. Thus, the lower the sperm penetration, the greater the compound's biodiffusion. In addition, the spermicidal activity of the analogues was tested again.

[3] = Effect of time in CMC formulation on activity and chemical integrity; format: physicochemical
Description: Residual samples of (R)-Z-15 in the CMC formulation were analyzed with ^1H nuclear magnetic resonance (NMR) and Matrix Assisted Laser Desorption Ionization Time of Flight Mass Spectroscopy (MALDI-TOF). For the NMR analyses, samples of the hydrogel were dissolved in D2O. For the MALDI-TOF analysis a sample of the hydrogel was placed in the chamber and subjected to the laser. The MALDI-TOF results are depicted in FIG. 1.

spermatozoa = assay: Sperm motility inhibition dose-response; format: cell-based; conditions: FIG. 2
Description: The ability of Z-15-mucic acid blends [(R)-Z-15-MA and rac-Z-15-MA] to inhibit sperm motility was tested in comparison to (R)-Z-15 alone or N-9. The results are depicted in FIG. 2.

pH of sample = format: physicochemical
Description: The recent disclosure (Fassi, U.S. Pat. No. 5,952.379) of stable, non-hygroscopic salts of L-(-)[(R)-]acylcamitine and alkanoyl L-(-)-[(R)-]acylcarnitines with mucic acid (MA) (2:1) prompted the exploration of the effects of blending MA with Z-15. Blending reduced the pH of a sample of Z-15 from about 9-10 to about 3.5-3.8. The blends contained only 67% Z-15 as an active ingredient compared to pure Z-15 (100%).

[4] = Table 5, initial conc. 10 mg/ml in dH2O
[5] = Table 6, initial conc. 10 mg/mL in dH2O
[6] = Table 1, initial conc. 10 mg/ml in dH2O

Compound	MIC (Candida albicans) [µg/mL]	Highest Spermicidal Dilution (1/X) [1, 4]	MEC [1, 4] [mg/mL]	Highest Spermicidal Dilution (1/X) [1, 6]	MEC (Minimum Effective Concentration) [1, 6] [mg/mL]	reduction of infective viral titer (HIV-1 (RF strain); 0.32 mg/mL) [log units]	reduction of infective viral titer (HIV-1 (RF strain); 1 mg/mL)	reduction of infective viral titer (HIV-1 (RF strain); 3.2 mg/mL)	reduction of infective viral titer (HIV-1 (RF strain); 10 mg/mL)	reduction of infective viral titer (HIV-1 (RF strain); 0.032 mg/mL) [log units]	reduction of infective viral titer (HIV-1 (RF strain); 0.1 mg/mL) [log units]	MEC (Minimum Effective Concentration per Sander-Cramer assay) [1] [mg/mL]	DET % control (test sperm penetration compared to control) [2] [% control]	also measured
CCCCCCCCCCCCCCCC1(O)C[N+](C)(C)CC(CC(=O)[O-])O1 (racemic) [(rac)-Z-15]		115.2 ± 23.6 1/X	0.117 ± 0.016											spermicidal activity, in words ([1]; Table 5): slightly more active than the two enantiomers and significantly more active than N-9; spermicidal activity, in words ([1]; Table 6): activity equal to that of the R and S enantiomers; Highest Spermicidal Dilution (1/X) [1, 5]: 108.80 ± 19.20 1/X; MEC [1, 5]: 0.113 mg/mL
CCCCCCCCCC[C@@]1(O)C[N+](C)(C)C[C@@H](CC(=O)[O-])O1 [Compound Z-10]	>100			4.8 ± 0.5 1/X	2.3 ± 0.2	0.8	1.0 log units	2.8 log units	≧4.0^a log units					
CCCCCCCCCCC[C@@]1(O)C[N+](C)(C)C[C@@H](CC(=O)[O-])O1 [Compound Z-11]	>100			7.6 ± 0.0 1/X	1.4 ± 0.1	0.8	2.0 log units	2.7 log units	4.7 log units					
CCCCCCCCCCCC[C@@]1(O)C[N+](C)(C)C[C@@H](CC(=O)[O-])O1 [Compound Z-12]	80 to 100			27.2 ± 2.3 1/X	0.407 ± 0.7	2.0	2.8 log units	≧3.5 log units	≧4.0^ log units	0.0	0.3			
Nonoxynol-9 [Compound N-9, reference compound]		33.6 ± 3.5 1/X	0.329 ± 0.035	83.2 ± 18.2 1/X	0.144 ± 0.011	3.5	≧4.0^ log units			0.5	2.2	0.144 ± 0.011	17.5 ± 0.7	Highest Spermicidal Dilution (1/X) [1, 5]: 73.6 ± 8.4 1/X; MEC [1, 5]: 0.156 mg/mL; anti-HIV activity, in words (HIV-1 (RF strain); Table 2): slightly more active than these compounds

The next lines start with results.

MIC (Candida albicans) [µg/mL]	Compound	Highest Spermicidal Dilution (1/X) [1, 4]	MEC [1, 4] [mg/mL]	Highest Spermicidal Dilution (1/X) [1, 6]	MEC (Minimum Effective Concentration) [1, 6] [mg/mL]	reduction of infective viral titer (HIV-1 (RF strain); 0.32 mg/mL) [log units]	reduction of infective viral titer (HIV-1 (RF strain); 1 mg/mL)	reduction of infective viral titer (HIV-1 (RF strain); 3.2 mg/mL)	reduction of infective viral titer (HIV-1 (RF strain); 10 mg/mL)	reduction of infective viral titer (HIV-1 (RF strain); 0.032 mg/mL) [log units]	reduction of infective viral titer (HIV-1 (RF strain); 0.1 mg/mL) [log units]	MEC (Minimum Effective Concentration per Sander-Cramer assay) [1] [mg/mL]	DET % control (test sperm penetration compared to control) [2] [% control]	also measured
40 (≈ 108 µM)	CCCCCCCCCCCCC[C@@]1(O)C[N+](C)(C)C[C@@H](CC(=O)[O-])O1 [Compound Z-13]			48.0 ± 5.1 1/X	0.235 ± 0.025	2.7	3.3 log units	3.5 log units	3.5 log units	0.5	1.5			
10 (≈ 25.9 µM)	CCCCCCCCCCCCCC[C@@]1(O)C[N+](C)(C)C[C@@H](CC(=O)[O-])O1 [Compound Z-14]			102.4 ± 18.5 1/X	0.121 ± 0.014	2.8	3.5 log units	≧4.0 log units	≧4.0^ log units	0.5	1.5	0.091 ± 0.008	18.0 ± 1.2	spermicidal activity (MEC), in words ([1]; Table 1): slightly lower than that of N-9; C. albicans growth inhibition, in words (Candida albicans): acceptable activity
2 (≈ 5 µM)	CCCCCCCCCCCCCCC[C@@]1(O)C[N+](C)(C)C[C@@H](CC(=O)[O-])O1 [Compound Z-15]	73.6 ± 9.1 1/X	0.156 ± 0.019	102.4 ± 9.9 1/X	0.109 ± 0.012	2.7	3.2 log units	3.8 log units	≧4.0^ log units	0.3	1.5	0.104 ± 0.011	16.0 ± 0.0	spermicidal activity (MEC), in words ([1]; Table 1): slightly lower than that of N-9; chemical integrity in formulation (1H NMR, MALDI-TOF) ([3]; six months in the CMC formulation): remained unchanged chemically; spermicidal activity after time in formulation ([3]; three months in the CMC formulations): still active as a spermicide after three months; C. albicans growth inhibition, in words (Candida albicans): highest activity; inhibition of sperm motility at concentrations below the MEC, in words (spermatozoa): superior ability of Z-15 over N-9; pH of a sample (pH of sample): 9-10

Source: patent US6656936B1, “Carnitine analogues as topical, microbicidal spermicides” (Virginia Tech Intellectual Properties, Inc., priority 1999, dated 2003)
